For assay [1], the system named is Leishmania donovani. Nature of the assay: Antiproliferative activity against Leishmania donovani DI700 promastigotes. Type of assay: functional, organism-based.
The test system of assay [2] is Leishmania donovani. Nature of the assay: Growth of Leishmania donovani DI700 promastigotes at 100 uM relative to control.
Assay [3] relates to Leishmania donovani. Nature of the assay: Antiproliferative activity against Leishmania donovani DI700 promastigotes overproducing ODC enzyme. Type of assay: functional, organism-based.
For assay [4], the system named is Leishmania donovani. Briefly: Antiproliferative activity against Leishmania donovani DI700 promastigotes overproducing SPDSYN enzyme. Type of assay: functional, organism-based.
Assay [5] has as its system Leishmania donovani. Briefly: Antiproliferative activity against Leishmania donovani DI700 promastigotes overproducing ADOMETDC enzyme. Type of assay: functional, organism-based.
Assay [6] deals with Leishmania donovani. Nature of the assay: Antiproliferative activity against Leishmania donovani DI700 promastigotes in presence of 100 uM putrescine. Type of assay: functional, organism-based.
The test system of assay [7] is Leishmania donovani. Nature of the assay: Antiproliferative activity against Leishmania donovani DI700 promastigotes in presence of 100 uM spermidine. Type of assay: functional, organism-based.

The source made the active and inactive calls. The rule behind the calls is not given here. Where only a bound is given, the exact number is not on record here.

On to `CCNCCCCNCCCCNCCCCNCCCCN(CC)CCCCNCCCCNCCCCNCCCCNCC`, for which the result in assay [1] was inactive. Moreover, in assay [2], the growth, % of control at 100 µM is 102%.
The matching figures for `CCNC/C=C\CNC/C=C\CNC/C=C\CNCC`: “inactive” and 104%.
Turning to `CCNCCCCNCCCCNCCCCNCCCCNCC1CC1CNCCCCNCCCCNCCCCNCCCCNCC` (stereo not given), the outcome in assay [1] was inactive. This compound showed a growth, % of control at 100 µM in assay [2] of 73%.
Consider `CCNCCCCNCC1CC1CNCCCCNCC` (stereo not given), for which, in assay [1], the outcome was inactive. For the same compound, the growth, % of control at 100 µM in assay [2] came out at 81.4%.
As a reminder, the EC50 is the concentration needed to bring the measured effect to its halfway point. Regarding `CCCCN` [BUTYLAMINE], the half-maximal effective concentration (EC50) is 400 µM in assay [1]; 2100 µM in assay [3]; 3300 µM in assay [4]; 200 µM in assay [5]; 2000 µM in assay [6]; over 10000 µM in assay [7].
Take `CCCCCCCCCCCCCC1CCN(CCCN)CCCN(C)CCCCN(C)CCCCN1C` (stereo not given): in assay [1], the result was inactive. In addition, the growth, % of control at 100 µM in assay [2] came out at 98.3%.
In the same order, the values of `CCNCCCCNCCCCNCCCCNCCCCNC/C=C\CNCCCCNCCCCNCCCCNCCCCNCC` are “inactive” and 25.7%.
As to `CCNCCCCNCCCCNCCCCNCCCCNCCCCNCCCCNCCCCNCC`, the outcome in assay [1] was inactive. The same compound showed a growth, % of control at 100 µM in assay [2] of 99.2%.
As for `CN(C/C=C\CN)C[C@H]1O[C@@H](n2cnc3c(N)ncnc32)[C@H](O)[C@@H]1O`, the EC50 is 40 µM in assay [1]; 2700 µM in assay [3]; 200 µM in assay [4]; over 10000 µM in assay [5]; 800 µM in assay [6]; over 10000 µM in assay [7].
`CCNCCCCNCCCCNCCCCNCCCCNCCCCNCCCCNCCCCNCCCCNCCCCN(CC)C(=O)CCC1=C(C)c2cc3[nH]c(cc4nc(cc5[nH]c(cc1n2)c(CCC(=O)N(CC)CCCCNCCCCNCCCCNCCCCNCCCCNCCCCNCCCCNCCCCNCCCCNCC)c5C)C(CC)=C4C)c(CC)c3C`: in assay [1], a half-maximal response (EC50) required 0.5 µM. For the same compound, in assay [2], the growth, % of control at 100 µM was 2.2%.
Compound `CCNCCCCNCCCCNCCCCNCCCCNCCCCNCCCCNCCCCNCCCCNCCCCNCCCCNCCCCNCCCCNCCCCNCC` yielded a half-maximal effective concentration (EC50) in assay [1] of 9 µM. In addition, the growth, % of control at 100 µM in assay [2] was 8.9%.
On to `CCNCCCNCC1CC1CNCCCNCC` (stereo not given), for which, in assay [1], the result was inactive. The same compound showed a growth, % of control at 100 µM in assay [2] of 106%.
`CCNC/C=C\CNCCCCNC/C=C\CNCC`: in assay [1], the outcome was inactive. The compound further returned a growth, % of control at 100 µM in assay [2] of 128%.
For `NCCC[C@](N)(C(=O)O)C(F)F` [EFLORNITHINE, (S)-], the EC50 in assay [1] is 40 µM; in assay [3], over 1000 µM; in assay [4], 40 µM; in assay [5], 30 µM; in assay [6] it was over 1000 µM; in assay [7], 130 µM.
Regarding `CCNCCCCNCCCCNCCCCNCCCCNCCCCNCCCCNCCCCNCCCCNCCCCNCCCCNCCCCNCC`, the EC50 in assay [1] came to 0.4 µM; in assay [3], 5.5 µM; in assay [4], 0.5 µM. For the same compound, the growth, % of control at 100 µM in assay [2] amounted to 8.4%.
Turning to `N=C(N)c1ccc(/N=N/Nc2ccc(C(=N)N)cc2)cc1` [DIMINAZENE], the half-maximal effective concentration (EC50) in assay [1] was found to be 9.5 µM; in assay [3], 8.7 µM; in assay [4], 8 µM; in assay [5] it was 9.7 µM; in assay [6], 6.1 µM; in assay [7] it was 9.7 µM.
Consider `CCNCCCCNCCCCNCCCCNCCCCNC/C=C/CNCCCCNCCCCNCCCCNCCCCNCC`, for which, in assay [1], the result was inactive. This compound registered a growth, % of control at 100 µM in assay [2] of 62.4%.
The matching figures for `CCNCCCCNCCCCNCCCCNCCCCNCCCCNC/C=C/CNCCCCNCCCCNCCCCNCCCCNCCCCNCC`: “inactive” and 7.5%.
Turning to `CCNCCCCNCC1CC1CNCCCCN(CC)C(=O)CCC1=C(C)c2cc3[nH]c(cc4nc(cc5[nH]c(cc1n2)c(CCC(=O)N(CC)CCCCNCC1CC1CNCCCCNCC)c5C)C(CC)=C4C)c(CC)c3C` (stereo not given), the result in assay [1] was inactive. For the same compound, the growth, % of control at 100 µM in assay [2] amounted to 1.3%.
Take `CCNCCCCNCCCCNCCCCNC/C=C\CNCCCCNCCCCNCCCCNCC`: in assay [1], the result was inactive. Besides, the growth, % of control at 100 µM in assay [2] was determined as 97.2%.
As to `CC(/C=N/NC(=N)N)=N\NC(=N)N` [MITOGUAZONE], the EC50 was determined as 1800 µM in assay [1]; 2200 µM in assay [3]; 1400 µM in assay [4]; 1500 µM in assay [5]; 2600 µM in assay [6]; 1800 µM in assay [7].
As for `N=C(N)c1ccc(OCCCCCOc2ccc(C(=N)N)cc2)cc1` [PENTAMIDINE], the EC50 in assay [1] was 1.9 µM; in assay [3], 2.6 µM; in assay [4], 1.7 µM; in assay [5], 1.7 µM; in assay [6] it was 1.9 µM; in assay [7], 2 µM.
On to `CCNCCCCNCC1CCC1CNCCCCNCC` (stereo not given), for which the outcome in assay [1] was inactive. In addition, in assay [2], the growth, % of control at 100 µM was found to be 92.8%.
In assay [1], `CCNCCCCNCCCCNCCCCNCCCCNCCCCNCCCCNC/C=C/CNCCCCNCCCCNCCCCNCCCCNCCCCNCCCCNCC` showed an EC50 of 6.5 µM. In assay [2], this compound gave a growth, % of control at 100 µM of 7.9%.
In turn, `CCNCCCCNCCCCNCCCCNCCCCNCCCCNCCCCNCCCCNCCCCNCCCCN(CC)C(=O)CCC1=C(C)c2cc3[nH]c(cc4nc(cc5[nH]c(cc1n2)c(CCC(=O)N(CC)CCCCNCCCCNCCCCNCCCCNCCCCNCCCCNCCCCNCCCCNCCCCNCC)c5C)C(S(=O)(=O)O)=C4C)c(S(=O)(=O)O)c3C` yielded an EC50 in assay [1] of 0.7 µM. This compound displayed a growth, % of control at 100 µM in assay [2] of 1.1%.
With `CCNCCCCNC/C=C\CNCCCCNCCCCNCC`, the outcome in assay [1] was inactive. Also, in assay [2], the growth, % of control at 100 µM is 96.2%.
With `CCNCCCCNCCCCNCCCCNCCCCNCCCCNCCCCNCCCCNCCCCNCCCCNCC`, the half-maximal effective concentration (EC50) in assay [1] was 9 µM; in assay [3] it was 9 µM; in assay [4], 50 µM. The compound further displayed a growth, % of control at 100 µM in assay [2] of 62.6%.
With `CCNCCCCNCCCCNCCCCNC/C=C/CNCCCCNCCCCNCCCCNCC`, the outcome in assay [1] was inactive. The compound also yielded a growth, % of control at 100 µM in assay [2] of 85.5%.
In assay [1], `CCCCCCCCCCCCCC1CCN(CCCNC(=O)CCC2=C(C)c3cc4[nH]c(cc5nc(cc6[nH]c(cc2n3)c(CCC(=O)NCCCN2CCCN(C)CCCCN(C)CCCN(C)C(CCCCCCCCCCCCC)CC2)c6C)C(CC)=C5C)c(CC)c4C)CCCN(C)CCCCN(C)CCCN1C` (stereo not given) had an EC50 of 50 µM. In assay [2], the growth, % of control at 100 µM stood at 1.7%.
`CCNC/C=C\CNCCCCNCCCCNCCCCNCC`: in assay [1], the result was inactive. This compound also showed a growth, % of control at 100 µM in assay [2] of 83.2%.
Regarding `CCNCCCCNCC1CC1CNCCCCNCC1CC1CNCCCCNCC` (stereo not given), in assay [1], the result was inactive. Besides, the growth, % of control at 100 µM in assay [2] was determined as 118%.
